From patent US4122199A, “Amides of pyrrolidinoethylamine which can be used in treatment of coughs” (Pierre Fabre S.A., priority 1976, dated 1978)
Structures can show the parent of a compound that is named as a salt. Where two headings read alike, the source gives them in different places.

What was measured:
[1] = tested on: guinea pig; test: Takagi's technique: coughing by mechanical stimulation of the tracheal bifurcation in the unanesthetized guinea pig; assay type: in vivo; details: 50 mg/kg i.p.; for Cough rating, m = average of the ratings, after treatment: 1 heavy, 0.5 light, 0 no cough
Method: A second method using a different type of stimulation of coughs made it possible to note, as compared with codeine, the antitussive properties of the main components claimed.
The technique employed is derived from Takagi's technique, and consists in causing coughing by mechanical stimulation of the tracheal bifurcation in the unanesthetized guinea pig.
The cough is evaluated by the research worker in accordance with the following scale:
The products are administered intraperitoneally and the stimulation is effected 10 and 20 minutes after the injection.

[2] = Solubility characteristics; assay type: physicochemical; details: for Solubility in water / solubility: water
[3] = in vivo; details: mouse, in vivo, mice, isotonic aqueous solution
Method: (§1) It is determined on mice, the products being administered orally, intraperitoneally, and intraveneously in isotonic aqueous solution.

[4] = tested on: mice; test: in vivo; details: isotonic aqueous solution
Method: as §1

[5] = tested on: guinea pigs; test: Citric acid aerosol method on guinea pigs (antitussive); assay type: in vivo; details: for % decrease in no. coughs in 15 mins.: orally, citric acid aerosol; for change in vivo at 50 mg/kg: Cavia porcellus, ip, 0.25 h, 50 mg/kg i.p., 20 minutes before 20% citric acid aerosol, read-out: % reduction of no. of coughs in 15 minutes
Method: The animals were subjected to a 20% citric acid aerosol for 15 minutes.
The coughs were recorded by a microphone.
The products were administered intraperitoneally 20 minutes before the exposure to the aerosol.
Some derivatives were also tested orally.

[6] = tested on: Pseudomonas aeruginosa; test: Fungistatic/bacteriostatic effect, Pseudomonas aeruginosa; assay type: cell-based; details: compared with S. aureus and E. coli
Method: (§2) The determination of fungistatic bacteriostatic properties was carried out by two methods on four strains:
(§3) Halved serial dilutions are formed in a hemoylsis tube, in each case to a volume of 1 ml; each dilution is inoculated with 10^6 micro-organisms per ml. After 48 hours in the oven, the minimum inhibitory concentration is determined. A subculture of the negative tubes (bacteriostatic), makes it possible to note the bactericidal concentration.

[7] = tested on: Candida albicans; test: Fungistatic/bacteriostatic effect, Candida albicans; assay type: cell-based; details: compared with S. aureus and E. coli
Method: as §2, §3

[8] = tested on: micro-organisms; test: Bactericidal action (subculture of the negative tubes); assay type: cell-based; details: at concentrations of 1 g percent
Method: as §2, §3

[9] = Local anesthesia activity; details: compared with procaine
[10] = tested on: mice; test: Antalgic properties: decrease in contortions caused by phenyl benzoquinone, in mice; assay type: in vivo; details: 150 mg/kg by mouth
Method: The antalgic properties with respect to a decrease in contortions caused by phenyl benzoquinone, as measured in mice, are very clear from the 150 mg/kg by mouth in the case of F 1534 (40% decrease), F 1539 (75% decrease), and F 1541 (60% decrease).

[11] = iv, intravenous, read-out: DL 50 intravenous
[12] = ip, intraperitoneal, read-out: DL 50 intraperitoneal

## COc1ccc2c3c1O[C@H]1[C@@H](O)C=C[C@H]4[C@@H](C2)N(C)CC[C@@]341 [CODEINE, codeine, reference compound]
[1]; t + 10 mn
  % variation of cough rating: -22%
  Cough rating, m = average of the ratings, after treatment: 0,75
[1]; t + 20 mn
  % variation of cough rating: -30%
  Cough rating, m = average of the ratings, after treatment: 0,67

## Cc1cc(Br)cc(C(=O)NCCN2CCCC2)c1O [Example 9, N(2'-pyrrolidino-ethyl)-5-bromo-3-methyl-salicylamide hydrochloride]
[2]; % soluble
  Solubility in ethanol: 3%
  Solubility in propylene glycol: 7%
[2]; in words
  Solubility in ether: insoluble
  Solubility in water: very soluble

## O=C(NCCN1CCCC1)c1cc2ccccc2oc1=O [Example 14, N(2'-pyrrolidino-ethyl)-3-coumarin-carboxamide hydrochloride]
[2]; % soluble
  Solubility in ethanol: 4%
  Solubility in propylene glycol: 7%
[2]; in words
  Solubility in water: very soluble

## O=C(NCCN1CCCC1)C(c1ccccc1)c1ccccc1 [F 1459, N(2'-pyrrolidino-ethyl)-α,α-diphenyl acetamide hydrochloride]
[2]; % soluble
  Solubility in ethanol: 5%
  Solubility in propylene glycol: 3%
  solubility: 250 mg/mL
[3]; [11]
  LD50: 48 mg/kg
[4]; hydrochloride
  DL 50 oral: 562 mg/kg
[5]; 50 mg/kg, hydrochloride
  % decrease in no. coughs in 15 mins.: -31
[1]; t + 10 mn
  % variation of cough rating: -32%
  Cough rating, m = average of the ratings, after treatment: 0,67
[1]; t + 20 mn
  % variation of cough rating: -66%
  Cough rating, m = average of the ratings, after treatment: 0,33
[6]
  effect on Pseudomonas aeruginosa: more moderate but significant effect
[7]
  effect on Candida albicans: more moderate but significant effect
[8]
  bactericidal action: real and significant

## CCOC(C(=O)NCCN1CCCC1)(c1ccccc1)c1ccccc1 [F 1460, N(2-pyrrolidino-ethyl)-α,α-diphenyl-α-ethoxy-acetamide hydrochloride]
[2]; % soluble
  Solubility in ethanol: 4%
  solubility: 10 mg/mL
[2]; in words
  Solubility in ether: insoluble
[3]; [12]
  LD50: 178 mg/kg
[3]; [11]
  LD50: 40 mg/kg
[3]; po, oral, read-out: DL 50 oral
  LD50: 750 mg/kg

## O=C(NCCN1CCCC1)N1c2ccccc2Sc2ccccc21 [F 1461, N(2'-pyrrolidino-ethyl)-10-phenothiazine carboxamide hydrochloride]
[2]; N-methyl pyrrolidone, % soluble
  Solubility in N-methyl pyrrolidone: 10%
[2]; % soluble
  Solubility in ethanol: 10%
  Solubility in propylene glycol: 10%
  solubility: 100 mg/mL
[3]; [12]
  LD50: 178 mg/kg
[3]; [11]
  LD50: 26 mg/kg
[3]; po, oral, read-out: DL 50 oral
  LD50: 560 mg/kg
[5]; 50 mg/kg
  % decrease in no. coughs in 15 mins.: -12
[5]; 100 mg/kg
  % decrease in no. coughs in 15 mins.: -25
[1]; t + 10 mn
  % variation of cough rating: -35%
  Cough rating, m = average of the ratings, after treatment: 0,54
[1]; t + 20 mn
  % variation of cough rating: -55%
  Cough rating, m = average of the ratings, after treatment: 0,37

## C=CCOc1c(C)cc(Br)cc1C(=O)NCCN1CCCC1 [F 1479, N(2'-pyrrolidino-ethyl)-2-allyloxy-5-bromo-3-methyl benzamide hydrochloride]
[2]; in words
  Solubility in water: very soluble

## O=C(NCCN1CCCC1)C1c2ccccc2-c2ccccc21 [F 1532, N(2'-pyrrolidino-ethyl)-9-fluoroene-carboxamide hydrochloride]
[2]; in words
  Solubility in ethanol: very soluble
  Solubility in propylene glycol: very soluble
  Solubility in water: very soluble
[3]; [12]
  LD50: 75 mg/kg
[3]; po, oral, read-out: DL 50 oral
  LD50: 178 mg/kg
[6]
  effect on Pseudomonas aeruginosa: more moderate but significant effect
[7]
  effect on Candida albicans: more moderate but significant effect
[8]
  bactericidal action: real and significant

## O=C(NCCN1CCCC1)C(c1ccccc1)N1CCCCC1 (centres unmarked) [F 1533, N(2'-pyrrolidino-ethyl)phenyl piperidino-acetamide]
[2]; in words
  Solubility in ethanol: Very soluble
  Solubility in water: insoluble
[3]; [12]
  LD50: 178 mg/kg
[3]; po, oral, read-out: DL 50 oral
  LD50: 750 mg/kg
[5]
  change in vivo at 50 mg/kg: -7%
[6]
  effect on Pseudomonas aeruginosa: more moderate but significant effect
[7]
  effect on Candida albicans: more moderate but significant effect
[8]
  bactericidal action: real and significant

## O=C(NCCN1CCCC1)C1c2ccccc2Oc2ccccc21 [F 1534, N(2'-pyrrolidino-ethyl)-9-xanthene carboxamide hydrochloride]
[2]; % soluble
  Solubility in ethanol: 10%
  Solubility in propylene glycol: 10%
[2]; in words
  Solubility in water: very soluble
[3]; [12]
  LD50: 178 mg/kg
[3]; po, oral, read-out: DL 50 oral
  LD50: 750 mg/kg
[6]
  effect on Pseudomonas aeruginosa: more moderate but significant effect
[7]
  effect on Candida albicans: more moderate but significant effect
[8]
  bactericidal action: real and significant
[9]
  local anesthesia activity: high order of local anesthesia activity comparable to that of procaine
[10]
  decrease in contortions caused by phenyl benzoquinone: 40%

## O=C(NCCN1CCCC1)C(O)(c1ccccc1)c1ccccc1 [F 1535, N(2'-pyrrolidino-ethyl)-α,α-diphenyl-hydroxy-acetamide hydrochloride]
[2]; in words
  Solubility in water: very soluble
[3]; [12]
  LD50: 237 mg/kg
[3]; oral, read-out: DL 50 oral
  LD50: 562 mg/kg
[9]
  local anesthesia activity: high order of local anesthesia activity comparable to that of procaine

## O=C(O)c1ccccc1C(=O)NCCN1CCCC1 [F 1537, N(2'-pyrrolidino-ethyl)-2-carboxy-benzamide]
[2]; in words
  Solubility in ethanol: very soluble
  Solubility in propylene glycol: very soluble
  Solubility in water: very soluble
[3]; [12]
  LD50: 500 mg/kg
[3]; po, oral, read-out: DL 50 oral
  LD50: 1000 mg/kg
[5]
  change in vivo at 50 mg/kg: -8%

## COc1cc(C(=O)NCCN2CCCC2)cc(OC)c1OC [F 1538, N(2'-pyrrolidino-ethyl)-3-4-5-trimethoxy-benzamide hydrochloride]
[2]; in words
  Solubility in ethanol: soluble
  Solubility in propylene glycol: soluble
  Solubility in water: soluble
[3]; [12]
  LD50: 300 mg/kg
[3]; po, oral, read-out: DL 50 oral
  LD50: 562 mg/kg
[5]
  change in vivo at 50 mg/kg: -1%

## O=C(COc1ccc(Cl)cc1)NCCN1CCCC1 [F 1539, N(2'-pyrrolidino-ethyl)-4-chloro-phenoxy-acetamide hydrochloride]
[2]; in words
  Solubility in ethanol: soluble
  Solubility in propylene glycol: soluble
  Solubility in water: soluble
[3]; [12]
  LD50: 178 mg/kg
[3]; po, oral, read-out: DL 50 oral
  LD50: 1000 mg/kg
[10]
  decrease in contortions caused by phenyl benzoquinone: 75%

## CC(C)(Oc1ccccc1)C(=O)NCCN1CCCC1 [F 1540, N(2'-pyrrolidino-ethyl)phenoxy-isobutyramide hydrochloride]
[2]; in words
  Solubility in ethanol: soluble
  Solubility in propylene glycol: soluble
  Solubility in water: soluble
[3]; [12]
  LD50: 237 mg/kg
[3]; po, oral, read-out: DL 50 oral
  LD50: 1000 mg/kg

## CC(C)(Oc1ccc(Cl)cc1)C(=O)NCCN1CCCC1 [F 1541, N(2'-pyrrolidino-ethyl)-4-chloro-phenoxy-isobutyramide hydrochloride]
[2]; in words
  Solubility in ethanol: Soluble
  Solubility in propylene glycol: Soluble
  Solubility in water: Soluble
[3]; [12]
  LD50: 178 mg/kg
[3]; po, oral, read-out: DL 50 oral
  LD50: 562 mg/kg
[9]
  local anesthesia activity: high order of local anesthesia activity comparable to that of procaine
[10]
  decrease in contortions caused by phenyl benzoquinone: 60%

## O=C(C=Cc1ccccc1)NCCN1CCCC1 [F 1542, N(2'-pyrrolidino-ethyl)cinnamide, HCl]
[2]; in words
  Solubility in ethanol: very soluble
  Solubility in propylene glycol: very soluble
  Solubility in water: very soluble
[3]; [12]
  LD50: 178 mg/kg
[3]; po, oral, read-out: DL 50 oral
  LD50: 1000 mg/kg
[5]
  change in vivo at 50 mg/kg: -19.5%

## O=C(NCCN1CCCC1)C(c1ccccc1)c1ccccc1 [F 1629, N(2-pyrrolidino-ethyl)-α,α-diphenyl-acetamide pamoate]
[2]; in words
  Solubility in alcohol: Insoluble
  Solubility in dimethyl acetamide: Soluble
  Solubility in methyl pyrrolidone: Soluble
  Solubility in water: Insoluble
[4]
  DL 50 intraperitoneal: 750 mg/kg
  DL 50 oral: 2000 mg/kg
[5]; 50 mg/kg
  % decrease in no. coughs in 15 mins.: -30
[5]; 100 mg/kg
  % decrease in no. coughs in 15 mins.: -50

## O=C(NCCN1CCCC1)C(c1ccccc1)c1ccccc1 [F 1630, N(2-pyrrolidino-ethyl)-α,α-diphenyl-acetamide palmitate]
[2]; in words
  Solubility in alcohol: Poorly soluble
  Solubility in dimethyl acetamide: Poorly soluble
  Solubility in methyl pyrrolidone: Poorly soluble
  Solubility in propylene glycol: Poorly soluble
  Solubility in water: Insoluble
[4]
  DL 50 intraperitoneal: 500 mg/kg
  DL 50 oral: 1500 mg/kg
